Laboratory results taken from patent US9290505B2, “Substituted imidazo[1,2-a]pyrazines as Syk inhibitors” (Gilead Sciences, Inc., priority 2013, dated 2016).
Values after ≈ are worked out from the molar mass of the structure shown.

Key:
Syk = Syk (Homo sapiens (Human), UniProt P43405); test: High Throughput Syk Biochemical Assay (KinEASE TR-FRET)
Protocol: Syk activity was measured using KinEASE (Cisbio), a time-resolved fluorescence resonance energy transfer (TR-FRET) immunoassay. In this assay, Syk-catalyzes the phosphorylation of a XL665-labeled peptide substrate. Europium conjugated phospho-tyrosine specific antibody binds the resulting phosphorylated peptide. Formation of phosphorylated peptide is quantified by TR-FRET with Europium as the donor and XL665 the acceptor in a 2-step endpoint assay. In brief, test compounds serially diluted in DMSO were delivered into Corning white, low volume, non-binding 384 well plates using the Echo 550 acoustic liquid dispenser (Labcyte®). Syk enzyme and substrates were dispensed into assay plates using a Multi-Flo (Bio-Tek Instruments).

[1] = Kinetic solubility in phosphate buffer at pH 7.4; type: physicochemical
Protocol: The kinetic solubility of compounds in phosphate buffer at pH 7.4 was assessed. The compounds to be tested were dissolved in dimethylsulfoxide at a 10 mM concentration. Stock samples were diluted, 3 μl with 297 μl of the phosphate buffer at pH 7.4 (DulBecco's phosphate buffered saline (Sigma-Aldrich D8662), overall molarity is 0.149M and pH 7.43). The samples were then incubated for 24 hours at 37° C. with shaking, the centrifuged and an aliquot taken and tested relative to a known standard concentration of 0.1 mM.

human hepatocytes = test: Human Hepatocyte Stability Assay; type: in vitro ADME; settings: predicted hepatocyte clearance, 1 μM compound
Protocol: The human […] stability of the compounds as predicted hepatocyte clearance in L/hr/kg was assessed. Compounds to be tested were diluted to 200 μM (4 μl of 10 mM DMSO stock into 196 μl ACN:H2O (50:50). Propranolol was used as a positive control, and buffer only without hepatocytes as 0% control. These were further diluted 4 μl with 891 μl KHB buffer (InVitroGRO catalog number Z99074) to provide 2× dosing solution. To each well of 24 well plate, 250 μl of the 2× dosing solution was added to each well with 250 μl of hepatocytes cells (1×10^6 viable cells/ml per well) or KHB for control samples to achieve a final compound concentration of 1 μM during incubation. The final solvent concentration was 0.01% DMSO and 0.25% ACN. The culture plate was placed on a rocker and incubated at 37° C., 5% CO2. Samples were collected at time 0, 1, 3, and 6 hours. The loss of parent compound was determined using LC-MS methods against a standard curve.

[2] = comparison table with known Syk inhibitors
[3] = aqueous buffer, kinetic from dmso stock, kinetic solubility, phosphate buffer pH 7.4, 24 hours at 37° C.
[4] = comparison table, kinetic solubility pH 7.4
[5] = phosphate buffer, 37 °C, aqueous buffer, kinetic from dmso stock, comparison table, kinetic solubility pH 7.4

IC50 (Syk; 20 μM ATP, 0.015 nM Syk) [nM] | IC50 (Syk; [2]) [nM] | solubility at 24 h [1, 3] [µM] | solubility at 24 h [1, 4] [µM] | Hheps CL (human hepatocytes) [mL/min/kg] | solubility at 24 h [1, 5] [µM] | Structure (SMILES)
 | 16 |  |  |  | 5 (≈ 2.01 µg/mL) | Cc1ncc(-c2cn3ccnc3c(Nc3ccc(N4CCOCC4)cc3)n2)cc1N [6-(5-amino-6-methylpyridin-3-yl)-N-(4-morpholinophenyl)imidazo[1,2-a]pyrazin-8-amine, reference compound]
8.7 | 8.7 |  |  | 0.83 |  | Cc1ncc(-c2cn3ccnc3c(Nc3ccc(N4CCN(C5COC5)CC4)c(OCCO)c3)n2)nc1N [Ex.-7, 2-(5-((6-(6-amino-5-methylpyrazin-2-yl)imidazo[1,2-a]pyrazin-8-yl)amino)-2-(4-(oxetan-3-yl)piperazin-1-yl)phenoxy)ethanol]
6.2 | 6.2 | 95 (≈ 43.5 µg/mL) | 95 (≈ 43.5 µg/mL) | 2 |  | Cc1ncc(-c2cn3ccnc3c(Nc3ccc(N4CCN(C5COC5)CC4)cc3)n2)nc1N [Ex.-1, 6-(6-amino-5-methylpyrazin-2-yl)-N-(4-(4-(oxetan-3-yl)piperazin-1-yl)phenyl)imidazo[1,2-a]pyrazin-8-amine]
12.2 | 12.2 | 97 (≈ 48.8 µg/mL) | 97 (≈ 48.8 µg/mL) | 1.2 |  | Nc1cncc(-c2cn3ccnc3c(Nc3ccc(N4CCN(C5COC5)CC4)c(OCCO)c3)n2)n1 [Ex.-5, 2-(5-((6-(6-aminopyrazin-2-yl)imidazo[1,2-a]pyrazin-8-yl)amino)-2-(4-(oxetan-3-yl)piperazin-1-yl)phenoxy)ethanol]
44 | 44 | 100 (≈ 45.8 µg/mL) | 100 (≈ 45.8 µg/mL) | 1.3 |  | Cc1c(-c2cncc(N)n2)nc(Nc2ccc(N3CCN(C4COC4)CC3)cc2)c2nccn12 [Ex.-4, 6-(6-aminopyrazin-2-yl)-5-methyl-N-(4-(4-(oxetan-3-yl)piperazin-1-yl)phenyl)imidazo[1,2-a]pyrazin-8-amine]
 |  | 95 (≈ 42.1 µg/mL) | 95 (≈ 42.1 µg/mL) | 0.917 |  | Nc1cncc(-c2cn3ccnc3c(Nc3ccc(N4CCN(C5COC5)CC4)cc3)n2)n1 [Ex.-2, 6-(6-aminopyrazin-2-yl)-N-(4-(4-(oxetan-3-yl)piperazin-1-yl)phenyl)imidazo[1,2-a]pyrazin-8-amine]

The remaining lines, values behind:

Structure (SMILES) | IC50 (Syk; 20 μM ATP, 0.015 nM Syk) [nM] | IC50 (Syk; [2]) [nM] | solubility at 24 h [1, 3] [µM] | solubility at 24 h [1, 4] [µM] | Hheps CL (human hepatocytes) [mL/min/kg] | solubility at 24 h [1, 5] [µM]
Nc1cncc(-c2cn3ccnc3c(Nc3ccc(N4CCO[C@@H](CO)C4)cc3)n2)n1 [Ex.-3, (R)-(4-(4-((6-(6-aminopyrazin-2-yl)imidazo[1,2-a]pyrazin-8-yl)amino)phenyl)morpholin-2-yl)methanol] | 13.3 | 13.3 | 91 (≈ 38.1 µg/mL) | 91 (≈ 38.1 µg/mL) | 1.5 | 
COc1ccc(Nc2nc(-c3ccc(N)nc3)cn3ccnc23)cc1OC [6-(6-aminopyridin-3-yl)-N-(3,4-dimethoxyphenyl)imidazo[1,2-a]pyrazin-8-amine, reference compound] |  | 53 |  |  |  | 10 (≈ 3.62 µg/mL)
Nc1cncc(-c2cn3ccnc3c(Nc3ccc(N4CCOCC4)cc3)n2)c1 [6-(5-aminopyridin-3-yl)-N-(4-morpholinophenyl)imidazo[1,2-a]pyrazin-8-amine, reference compound] |  | 31 |  |  |  | 5 (≈ 1.94 µg/mL)
COc1ccc(Nc2nc(-c3cccc(N)c3)cn3ccnc23)cc1OC [6-(3-aminophenyl)-N-(3,4-dimethoxyphenyl)imidazo[1,2-a]pyrazin-8-amine, reference compound] |  | 188 |  |  |  | 3 (≈ 1.08 µg/mL)
Nc1cncc(-c2cn3ccnc3c(Nc3ccc(N4CCN(CC(CO)CO)CC4)cc3)n2)n1 [Ex.-6, 2-((4-(4-((6-(6-aminopyrazin-2-yl)imidazo[1,2-a]pyrazin-8-yl)amino)phenyl)piperazin-1-yl)methyl)propane-1,3-diol] | 14.5 | 14.5 | 99 (≈ 47.1 µg/mL) | 99 (≈ 47.1 µg/mL) | 1.3 | 
